According to ChEMBL document CHEMBL1152141, “Pyrrolo-pyrimidones: a novel class of MK2 inhibitors with potent cellular activity” (Bioorg Med Chem Lett, 2008):
Values after ≈ are worked out from the molar mass of the structure shown.

How the values were obtained:
PBMC = test: Inhibition of LPS-stimulated TNFalpha release from human PBMC after 3 hrs
[1] = Thermodynamic solubility at pH 6.8; type: physicochemical; conditions: buffer
[2] = target: Mitogen-activated protein kinase 9 (Homo sapiens, UniProt P45984); test: Inhibition of JNK2
Mitogen-activated protein kinase 9, sequence (P45984 whole entry): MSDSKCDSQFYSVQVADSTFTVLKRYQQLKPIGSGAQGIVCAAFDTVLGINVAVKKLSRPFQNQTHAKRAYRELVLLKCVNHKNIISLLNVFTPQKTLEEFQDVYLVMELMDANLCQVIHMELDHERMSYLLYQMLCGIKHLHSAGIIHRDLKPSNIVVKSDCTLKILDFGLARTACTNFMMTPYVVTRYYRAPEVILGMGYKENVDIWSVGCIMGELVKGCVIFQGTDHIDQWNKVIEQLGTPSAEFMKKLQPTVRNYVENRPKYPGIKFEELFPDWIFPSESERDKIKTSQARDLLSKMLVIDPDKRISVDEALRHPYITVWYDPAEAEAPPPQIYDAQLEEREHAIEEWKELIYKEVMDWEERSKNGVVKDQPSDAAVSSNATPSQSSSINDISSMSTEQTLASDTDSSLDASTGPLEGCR

[3] = target: Vascular endothelial growth factor receptor 2 (Homo sapiens, UniProt P35968); test: Inhibition of KDR
Vascular endothelial growth factor receptor 2, sequence (P35968 whole entry): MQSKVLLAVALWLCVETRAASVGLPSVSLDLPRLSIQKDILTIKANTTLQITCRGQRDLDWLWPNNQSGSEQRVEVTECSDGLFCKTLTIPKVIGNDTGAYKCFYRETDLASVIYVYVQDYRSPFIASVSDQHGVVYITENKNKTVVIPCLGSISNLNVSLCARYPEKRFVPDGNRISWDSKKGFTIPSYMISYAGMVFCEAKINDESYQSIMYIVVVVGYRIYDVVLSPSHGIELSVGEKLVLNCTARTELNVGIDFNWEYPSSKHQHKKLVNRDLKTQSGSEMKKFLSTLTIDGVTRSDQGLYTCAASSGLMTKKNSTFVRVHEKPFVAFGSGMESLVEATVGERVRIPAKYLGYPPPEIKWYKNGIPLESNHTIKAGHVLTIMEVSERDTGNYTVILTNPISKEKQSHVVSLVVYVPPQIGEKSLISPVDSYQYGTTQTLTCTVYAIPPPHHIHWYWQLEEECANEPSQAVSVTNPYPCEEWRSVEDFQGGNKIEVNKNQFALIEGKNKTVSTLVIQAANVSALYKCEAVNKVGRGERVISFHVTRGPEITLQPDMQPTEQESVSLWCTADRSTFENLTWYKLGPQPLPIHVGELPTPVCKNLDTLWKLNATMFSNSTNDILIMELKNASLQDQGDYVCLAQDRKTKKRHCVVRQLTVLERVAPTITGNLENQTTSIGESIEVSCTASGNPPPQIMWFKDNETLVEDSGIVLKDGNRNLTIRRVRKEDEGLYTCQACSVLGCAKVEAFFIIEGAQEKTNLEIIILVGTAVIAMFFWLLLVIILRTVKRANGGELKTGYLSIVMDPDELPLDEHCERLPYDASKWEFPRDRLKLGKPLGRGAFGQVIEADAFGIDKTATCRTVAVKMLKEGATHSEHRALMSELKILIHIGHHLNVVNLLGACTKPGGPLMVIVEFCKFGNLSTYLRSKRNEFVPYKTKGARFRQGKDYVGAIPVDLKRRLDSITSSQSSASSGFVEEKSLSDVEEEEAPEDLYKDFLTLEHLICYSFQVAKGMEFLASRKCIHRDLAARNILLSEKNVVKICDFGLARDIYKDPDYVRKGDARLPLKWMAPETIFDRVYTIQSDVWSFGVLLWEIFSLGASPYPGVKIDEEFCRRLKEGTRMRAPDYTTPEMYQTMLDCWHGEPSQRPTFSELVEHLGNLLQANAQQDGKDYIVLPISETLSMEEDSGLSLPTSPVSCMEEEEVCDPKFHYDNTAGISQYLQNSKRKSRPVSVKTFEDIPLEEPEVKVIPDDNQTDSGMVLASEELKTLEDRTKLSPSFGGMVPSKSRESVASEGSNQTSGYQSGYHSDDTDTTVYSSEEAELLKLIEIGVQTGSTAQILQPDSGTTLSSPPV

Ephrin type-B receptor 4 = Ephrin type-B receptor 4 (Homo sapiens, UniProt P54760); test: Inhibition of EphB4
[4] = target: Glycogen synthase kinase-3 beta (Homo sapiens, UniProt P49841); test: Inhibition of GSK3b
Glycogen synthase kinase-3 beta, sequence (P49841 whole entry): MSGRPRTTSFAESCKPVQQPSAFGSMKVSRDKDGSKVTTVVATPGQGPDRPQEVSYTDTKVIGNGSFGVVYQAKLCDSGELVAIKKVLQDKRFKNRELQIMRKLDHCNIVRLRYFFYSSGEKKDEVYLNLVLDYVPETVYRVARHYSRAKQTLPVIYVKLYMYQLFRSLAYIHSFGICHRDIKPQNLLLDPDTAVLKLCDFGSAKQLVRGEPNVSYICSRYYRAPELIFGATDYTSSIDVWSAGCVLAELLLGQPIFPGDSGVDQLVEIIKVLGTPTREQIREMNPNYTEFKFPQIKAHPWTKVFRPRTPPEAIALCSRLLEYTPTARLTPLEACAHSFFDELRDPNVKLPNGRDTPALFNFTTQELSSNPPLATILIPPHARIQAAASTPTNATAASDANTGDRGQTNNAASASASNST

[5] = target: Mast/stem cell growth factor receptor Kit (Homo sapiens, UniProt P10721); test: Inhibition of c-Kit
Mast/stem cell growth factor receptor Kit, sequence (P10721 whole entry): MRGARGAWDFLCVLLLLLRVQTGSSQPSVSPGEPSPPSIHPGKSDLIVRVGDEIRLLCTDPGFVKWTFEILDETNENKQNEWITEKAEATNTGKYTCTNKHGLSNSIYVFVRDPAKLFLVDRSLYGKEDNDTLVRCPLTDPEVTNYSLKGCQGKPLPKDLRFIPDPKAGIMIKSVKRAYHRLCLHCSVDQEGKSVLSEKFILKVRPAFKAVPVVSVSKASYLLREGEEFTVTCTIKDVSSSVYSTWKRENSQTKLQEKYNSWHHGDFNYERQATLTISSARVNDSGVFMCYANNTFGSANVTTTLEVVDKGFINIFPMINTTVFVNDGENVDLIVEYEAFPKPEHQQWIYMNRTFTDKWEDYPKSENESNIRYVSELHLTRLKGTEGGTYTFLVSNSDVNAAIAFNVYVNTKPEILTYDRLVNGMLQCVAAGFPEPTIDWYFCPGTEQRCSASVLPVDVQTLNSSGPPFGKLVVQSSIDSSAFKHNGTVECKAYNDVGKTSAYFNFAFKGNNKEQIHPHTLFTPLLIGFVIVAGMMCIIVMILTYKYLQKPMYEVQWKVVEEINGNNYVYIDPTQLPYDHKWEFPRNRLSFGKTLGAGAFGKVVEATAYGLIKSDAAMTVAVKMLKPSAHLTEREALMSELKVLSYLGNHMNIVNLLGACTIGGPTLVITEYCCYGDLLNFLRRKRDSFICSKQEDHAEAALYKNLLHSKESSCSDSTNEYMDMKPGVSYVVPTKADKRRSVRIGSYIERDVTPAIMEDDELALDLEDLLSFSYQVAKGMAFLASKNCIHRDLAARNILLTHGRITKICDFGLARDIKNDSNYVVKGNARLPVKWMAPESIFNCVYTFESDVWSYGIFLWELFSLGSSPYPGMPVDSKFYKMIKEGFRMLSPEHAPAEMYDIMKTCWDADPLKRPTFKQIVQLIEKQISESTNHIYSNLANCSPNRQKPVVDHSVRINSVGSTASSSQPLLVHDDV

[6] = target: Fibroblast growth factor receptor 4 (Homo sapiens, UniProt P22455); test: Inhibition of FGFR4
[7] = target: Epidermal growth factor receptor (Homo sapiens, UniProt P00533)
Ephrin type-A receptor 4 = Ephrin type-A receptor 4 (Homo sapiens, UniProt P54764); test: Inhibition of EphA4
[8] = target: ALK tyrosine kinase receptor (Homo sapiens, UniProt Q9UM73); test: Inhibition of Alk
[9] = target: Insulin-like growth factor 1 receptor (Homo sapiens, UniProt P08069); test: Inhibition of IGF1R
[10] = target: MAP kinase-activated protein kinase 2 (Homo sapiens, UniProt P49137)
[11] = target: Tyrosine-protein kinase JAK2 (Homo sapiens, UniProt O60674); test: Inhibition of JAK2
[12] = target: Mitogen-activated protein kinase 1 (Homo sapiens, UniProt P28482); test: Inhibition of ERK2
Mitogen-activated protein kinase 1, sequence (P28482 whole entry): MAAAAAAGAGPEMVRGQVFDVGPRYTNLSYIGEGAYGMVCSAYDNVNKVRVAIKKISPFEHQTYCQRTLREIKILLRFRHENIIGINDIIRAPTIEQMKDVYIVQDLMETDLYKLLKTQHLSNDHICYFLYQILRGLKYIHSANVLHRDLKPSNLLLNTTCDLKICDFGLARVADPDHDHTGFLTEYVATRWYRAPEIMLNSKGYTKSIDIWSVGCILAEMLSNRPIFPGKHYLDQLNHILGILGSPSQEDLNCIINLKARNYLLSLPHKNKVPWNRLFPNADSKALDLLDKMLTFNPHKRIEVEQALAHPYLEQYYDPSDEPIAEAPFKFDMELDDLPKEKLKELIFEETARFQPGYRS

[13] = target: Tyrosine-protein kinase JAK3 (Homo sapiens, UniProt P52333); test: Inhibition of JAK3
[14] = target: Cyclin-dependent kinase 2 (Homo sapiens, UniProt P24941); test: Inhibition of CDK2
[15] = target: Receptor tyrosine-protein kinase erbB-2 (Homo sapiens, UniProt P04626); test: Inhibition of HER2
MAP kinase p38 = MAP kinase p38 (Homo sapiens, UniProt O15264+Q15759+Q16539+P53778); test: Inhibition of human p38; type: protein assay
[16] = target: Mitogen-activated protein kinase 8 (Homo sapiens, UniProt P45983); test: Inhibition of JNK1
Mitogen-activated protein kinase 8, sequence (P45983 whole entry): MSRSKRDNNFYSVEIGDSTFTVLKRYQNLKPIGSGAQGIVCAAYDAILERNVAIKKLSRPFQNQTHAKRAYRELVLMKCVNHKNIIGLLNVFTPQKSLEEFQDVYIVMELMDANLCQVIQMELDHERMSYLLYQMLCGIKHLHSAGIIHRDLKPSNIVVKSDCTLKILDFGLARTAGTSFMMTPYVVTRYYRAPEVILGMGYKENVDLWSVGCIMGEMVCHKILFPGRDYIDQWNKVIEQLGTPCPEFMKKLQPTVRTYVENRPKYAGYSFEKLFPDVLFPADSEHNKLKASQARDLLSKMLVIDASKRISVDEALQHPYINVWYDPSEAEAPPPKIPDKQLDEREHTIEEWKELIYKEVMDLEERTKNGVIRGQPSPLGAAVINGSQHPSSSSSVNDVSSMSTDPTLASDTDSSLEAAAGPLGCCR

Insulin receptor = Insulin receptor (Homo sapiens, UniProt P06213); test: Inhibition of Ins1R
[17] = target: RAC-alpha serine/threonine-protein kinase (Homo sapiens, UniProt P31749); test: Inhibition of PKB
RAC-alpha serine/threonine-protein kinase, sequence (P31749 whole entry): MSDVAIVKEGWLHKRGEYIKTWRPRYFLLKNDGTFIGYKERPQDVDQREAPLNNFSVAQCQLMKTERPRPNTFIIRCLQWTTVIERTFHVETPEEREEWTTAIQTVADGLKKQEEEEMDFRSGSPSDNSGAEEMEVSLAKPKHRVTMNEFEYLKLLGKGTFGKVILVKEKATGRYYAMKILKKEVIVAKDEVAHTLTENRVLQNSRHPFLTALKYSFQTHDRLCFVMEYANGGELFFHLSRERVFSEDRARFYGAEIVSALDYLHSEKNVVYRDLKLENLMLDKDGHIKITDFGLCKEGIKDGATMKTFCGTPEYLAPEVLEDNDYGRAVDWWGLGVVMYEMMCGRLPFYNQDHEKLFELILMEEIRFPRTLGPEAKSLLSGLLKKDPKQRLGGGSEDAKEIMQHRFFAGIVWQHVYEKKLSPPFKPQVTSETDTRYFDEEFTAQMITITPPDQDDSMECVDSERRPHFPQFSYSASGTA

[18] = target: Heat shock protein beta-1 (Homo sapiens) (UniProt P04792); test: Inhibition of LPS-stimulated hsp27 phosphorylation in 1 hr pretreated human THP1 cells by Western blot; type: cell-based; conditions: THP-1
[19] = target: Hepatocyte growth factor receptor (Homo sapiens, UniProt P08581); test: Inhibition of c-Met
Aurora kinase A = Aurora kinase A (Homo sapiens, UniProt O14965); test: Inhibition of Aurora A
Aurora kinase A, sequence (O14965 whole entry): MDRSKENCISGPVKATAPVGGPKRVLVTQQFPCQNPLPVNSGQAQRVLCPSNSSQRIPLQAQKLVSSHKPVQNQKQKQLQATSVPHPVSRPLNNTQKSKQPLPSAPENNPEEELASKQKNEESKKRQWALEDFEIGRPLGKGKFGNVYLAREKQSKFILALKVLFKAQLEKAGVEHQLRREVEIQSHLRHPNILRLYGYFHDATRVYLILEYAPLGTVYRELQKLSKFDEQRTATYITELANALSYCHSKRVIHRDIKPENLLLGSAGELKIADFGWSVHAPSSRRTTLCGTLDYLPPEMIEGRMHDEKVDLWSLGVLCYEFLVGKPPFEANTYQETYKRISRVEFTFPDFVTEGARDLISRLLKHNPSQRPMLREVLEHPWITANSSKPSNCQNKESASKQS

[20] = Inhibition of PKA
[21] = target: Tyrosine-protein kinase BTK (Homo sapiens, UniProt Q06187); test: Inhibition of Btk
[22] = target: MAP kinase-activated protein kinase 5 (Homo sapiens, UniProt Q8IW41); test: Inhibition of MK5
[23] = target: Tyrosine-protein kinase SYK (Homo sapiens, UniProt P43405)

O=c1[nH]cnc2[nH]c(-c3ccnc(/C=C/c4ccccc4)c3)cc12
IC50 (PBMC): 2300 nM

O=C(Nc1cc(-c2cc3c(=O)[nH]cnc3[nH]2)ccn1)c1ccc(C2CCCC2)cc1
IC50 (PBMC): 10000 nM

CN(C)CCOc1ccc(/C=C/c2cc(-c3cc4c(=O)[nH]cnc4[nH]3)ccn2)cc1
solubility thermodynamic [1]: 410 µg/mL (≈ 1020 µM)
IC50 [2]: 240 nM
IC50 [3]: 190 nM
IC50 (Ephrin type-B receptor 4): 1400 nM
IC50 [4]: 530 nM
IC50 [5]: 6100 nM
IC50 [6]: 6800 nM
IC50 [7]: 3300 nM
IC50 (Ephrin type-A receptor 4): 5600 nM
IC50 [8]: 4100 nM
IC50 [9]: 6400 nM
IC50 [10]: 82 nM
IC50 [11]: 3600 nM
IC50 [12]: 2600 nM
IC50 [13]: 1000 nM
IC50 [14]: 8200 nM
IC50 [15]: 9500 nM
IC50 (MAP kinase p38): > 10000 nM
IC50 [16]: 960 nM
IC50 (PBMC): 40 nM
IC50 (Insulin receptor): 7800 nM
IC50 [17]: > 10000 nM
Activity [18]: Dose-dependent effect
IC50 [19]: 140 nM
IC50 (Aurora kinase A): 280 nM
IC50 [20]: > 10000 nM
IC50 [21]: > 10000 nM
IC50 [22]: 28 nM

Nc1nc2[nH]c(-c3ccnc(/C=C/c4ccccc4)c3)cc2c(=O)[nH]1
IC50 (PBMC): 1500 nM

O=C(c1ccc(/C=C/c2cc(-c3cc4c(=O)[nH]cnc4[nH]3)ccn2)cc1)N1CCOCC1
solubility thermodynamic [1]: 9 µg/mL (≈ 21.1 µM)
IC50 (PBMC): 150 nM

O=c1[nH]c(Cc2ccccc2)nc2[nH]c(-c3ccnc(/C=C/c4ccccc4)c3)cc12
IC50 (PBMC): > 10000 nM

O=c1[nH]cnc2[nH]c(-c3ccnc(/C=C/c4ccc(CN5CCOCC5)cc4)c3)cc12
solubility thermodynamic [1]: 41 µg/mL (≈ 99.2 µM)
IC50 [2]: 950 nM
IC50 [3]: 100 nM
IC50 (Ephrin type-B receptor 4): 1700 nM
IC50 [4]: 300 nM
IC50 [5]: 5200 nM
IC50 [6]: > 10000 nM
IC50 (Ephrin type-A receptor 4): > 10000 nM
IC50 [8]: > 10000 nM
IC50 [9]: > 10000 nM
IC50 [10]: 51 nM
IC50 [11]: 1300 nM
IC50 [12]: 1100 nM
IC50 [13]: 310 nM
IC50 [14]: > 10000 nM
IC50 [15]: > 10000 nM
IC50 (MAP kinase p38): > 10000 nM
IC50 [16]: 4000 nM
IC50 [23]: 6200 nM
IC50 (PBMC): 110 nM
IC50 (Insulin receptor): > 10000 nM
IC50 [17]: > 10000 nM
Activity [18]: Dose-dependent effect
IC50 [19]: 85 nM
IC50 (Aurora kinase A): 93 nM
IC50 [20]: 6700 nM
IC50 [21]: > 10000 nM
IC50 [22]: 24 nM

CCN(CC)Cc1ccc(/C=C/c2cc(-c3cc4c(=O)[nH]cnc4[nH]3)ccn2)cc1
IC50 (PBMC): 380 nM

COc1ccc(-c2cc(-c3cc4c(=O)[nH]cnc4[nH]3)ccn2)cc1
IC50 (PBMC): > 10000 nM

O=c1[nH]cnc2[nH]c(-c3ccnc(/C=C/c4ccc(F)cc4)c3)cc12
solubility thermodynamic [1]: 3 µg/mL (≈ 9.03 µM)
IC50 (PBMC): 350 nM

Cc1nc2[nH]c(-c3ccnc(/C=C/c4ccccc4)c3)cc2c(=O)[nH]1
IC50 (PBMC): 1100 nM
